Reference: patent publication US11655216B2 (priority 2016, dated 2023)
Like-named read-outs stand apart in the source and are kept apart here.

Legend:
[1] = biological target: T1, glutathione-S-transferase (GST) tagged LXRbeta LBD (ligand binding domain) (Homo sapiens, UniProt P55055); assay: LanthaScreen TR-FRET Liver X Receptor Coactivator Assay, LXR beta; assay type: biochemical; details: for EC50: potency (Inflection Point), compound-induced co-activator recruitment, TR-FRET; for Emax: read-out: LXR beta actiivty at max dose, efficacy (% Emax) in relation to reference dual agonist T0901317
T1 construct: purchased Invitrogen pv4658
T1 sequence (P55055 222-460 limits assumed): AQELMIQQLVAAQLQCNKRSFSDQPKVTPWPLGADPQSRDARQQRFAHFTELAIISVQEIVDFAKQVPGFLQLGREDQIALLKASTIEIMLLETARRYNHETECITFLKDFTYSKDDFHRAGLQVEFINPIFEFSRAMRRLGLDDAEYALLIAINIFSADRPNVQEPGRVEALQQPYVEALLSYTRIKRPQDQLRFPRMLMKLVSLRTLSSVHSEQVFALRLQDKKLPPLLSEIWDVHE
Procedure: (§1) While running the LanthaScreen™ TR-FRET Liver X Receptor Coactivator Assay, LXR alpha-LBD or LXR beta-LBD was added to ligand test compounds followed by addition of a mixture of a fluorescein-labelled coactivator peptide and terbium-conjugated anti-GST antibody. After an incubation period at room temperature, TR-FRET (time-resolved fluorescence resonance energy transfer) was measured using a filter-based instrument capable of TR-FRET, e.g. PerkinElmer Envision.

[2] = biological target: T2, glutathione-S-transferase (GST) tagged LXRalpha LBD (ligand binding domain) (Homo sapiens, UniProt Q13133); assay: biochemical
T2 construct: purchased Invitrogen pv4655
T2 sequence (Q13133 209-447 limits assumed): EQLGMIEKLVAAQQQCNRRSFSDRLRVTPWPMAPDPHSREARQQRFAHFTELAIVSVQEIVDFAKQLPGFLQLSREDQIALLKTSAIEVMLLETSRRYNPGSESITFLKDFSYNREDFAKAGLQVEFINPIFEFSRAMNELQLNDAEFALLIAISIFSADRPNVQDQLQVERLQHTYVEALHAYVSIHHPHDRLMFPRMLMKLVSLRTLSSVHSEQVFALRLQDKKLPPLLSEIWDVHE
Procedure: as §1

[3] = LXR alpha IP, potency (Inflection Point), compound-induced co-activator recruitment, TR-FRET
[4] = read-out: LXR alpha actiivty at max dose, efficacy (% Emax) in relation to reference dual agonist T0901317
[5] = potency (Inflection Point), compound-induced co-activator recruitment, TR-FRET
[6] = efficacy (% Emax) in relation to reference dual agonist T0901317, read-out: LXR alpha actiivty at max dose
[7] = potency (Inflection Point), compound-induced co-activator recruitment, TR-FRET, read-out: LXR alpha IP
[8] = efficacy (% Emax) in relation to reference dual agonist T0901317

Compound | EC50 ([1]; LXR beta IP) [nM] | Emax [1] [%] | EC50 [2, 3] [nM] | Emax [2, 4] [%] | EC50 [2, 7] [nM] | other results
CC(C)(C)OC(=O)NC1CN(C(=O)c2ccc(OCCCCC3CCN(C(=O)[C@](O)(c4ccccc4)C(F)(F)F)CC3)cc2Cl)C1 (single isomer, unassigned) [Example 8-11, (R or S)-tert-butyl 1-(2-chloro-4-(4-(1-(3,3,3-trifluoro-2-hydroxy-2-phenylpropanoyl)piperidin-4-yl)butoxy)benzoyl) azetidin-3-ylcarbamate] | 18 | 56 | 520 | 32 | – | –
Cc1nc(OC2CCC3(CC2)CCN(C(=O)C(O)(c2cccc(OC4CC4)c2)C(F)(F)F)CC3)ccc1C(=O)N(C)C (single isomer, unassigned) [Example 2-1, 6-(3-((R or S)-2-(3-cyclopropoxyphenyl)-3,3,3-trifluoro-2-hydroxypropanoyl)-3-azaspiro[5.5]undecan-9-yloxy)-N,N,2-trimethylnicotinamide] | 140 | 46 | – | 0 | – | LXR alpha IP [2, 5]: No IP
COc1cccc(C(O)(C(=O)N2CCC(C(F)(F)CCCOc3ccc(C(=O)N(C)C)c(Cl)c3)CC2)C(F)(F)F)c1 (single isomer, unassigned) [Example 22-1, (R or S)-2-chloro-4-(4,4-difluoro-4-(1-(3,3,3-trifluoro-2-hydroxy-2-(3-methoxyphenyl)propanoyl)piperidin-4-yl)butoxy)-N,N-dimethylbenzamide] | 7 | 67 | – | – | 212 | Emax [2, 6]: 32%
CN(C)C(=O)c1ccc(OCCCCC2CCN(C(=O)C(O)(c3ccccn3)C(F)(F)F)CC2)nc1Cl (stereo not drawn) [Example 6-1, 2-chloro-N,N-dimethyl-6-(4-(1-(3,3,3-trifluoro-2-hydroxy-2-(pyridin-2-yl)propanoyl)piperidin-4-yl)butoxy)nicotinamide] | 29 | 73 | – | – | 1330 | Emax [2, 6]: 28%
CN(C)C(=O)c1ccc(OC(F)(F)CCCC2CCN(C(=O)C(O)(c3ccccc3)C(F)(F)F)CC2)cc1Cl (single isomer, unassigned) [Example 19-1, (R or S)-2-chloro-4-(1,1-difluoro-4-(1-(3,3,3-trifluoro-2-hydroxy-2-phenylpropanoyl)piperidin-4-yl)butoxy)-N,N-dimethylbenzamide] | 86 | 75 | – | – | 1170 | Emax [2, 6]: 23%
CN(C)C(=O)c1ccc(OCCCCC2CCN(C(=O)C3(c4ccccc4)CCCO3)CC2)cc1Cl (single isomer, unassigned) [Example 3-5, (S or R)-2-chloro-N,N-dimethyl-4-(4-(1-(2-phenyl-tetrahydrofuran-2-carbonyl)piperidin-4-yl)butoxy)benzamide] | 91 | 54 | – | 0 | – | LXR alpha IP [2, 5]: No IP
CN(C)C(=O)c1ccc(OCCCCC2CCN(C(=O)C(O)(c3cccc(-c4cnn(C)c4)c3)C(F)(F)F)CC2)cc1Cl (single isomer, unassigned) [Example 3-19, (R or S)-2-chloro-N,N-dimethyl-4-(4-(1-(3,3,3-trifluoro-2-hydroxy-2-(3-(1-methyl-1H-pyrazol-4-yl)phenyl)propanoyl)piperidin-4-yl)butoxy)benzamide] | 124 | 24 | 1150 | 25 | – | –
O=C(c1ccc(OCCCCC2CCN(C(=O)[C@](O)(c3ccccc3)C(F)(F)F)CC2)cc1Cl)N1CCC[C@@H]1CO (single isomer, unassigned) [Example 8-8, (R or S)-1-(4-(4-(3-chloro-4-((R or S)-2-(hydroxymethyl)pyrrolidine-1-carbonyl)phenoxy)butyl)piperidin-1-yl)-3,3,3-trifluoro-2-hydroxy-2-phenylpropan-1-one] | 21 | 44 | 653 | 27 | – | –
C[C@H](CCCC1CCN(C(=O)[C@](O)(c2ccccc2)C(F)(F)F)CC1)Oc1ccc(C(=O)N(C)C)c(Cl)c1 (single isomer, unassigned) [Example 25-1, 2-chloro-N,N-dimethyl-4-((R or S)-5-(1-((R or S)-3,3,3-trifluoro-2-hydroxy-2-phenylpropanoyl)piperidin-4-yl)pentan-2-yloxy)benzamide] | 101 | 91 | – | – | 1160 | Emax [2, 6]: 29%
COc1cccc([C@](O)(C(=O)N2CCC(C[C@H]3C[C@@H](Oc4ccc(C(=O)N(C)C)c(Cl)c4)C3)CC2)C(F)F)c1 (single isomer, unassigned) [Example 37-7, 2-chloro-4-((1R,3s)-3-((1-((R or S)-3,3-difluoro-2-hydroxy-2-(3-methoxyphenyl)propanoyl)piperidin-4-yl)methyl)cyclobutoxy)-N,N-dimethylbenzamide] | 32 | 95 | – | 4 | – | LXR alpha IP [2, 5]: No IP
CN(C)C(=O)c1ccc(O[C@H]2C[C@@H](CC3CCN(C(=O)[C@](O)(c4ccccc4)C(F)(F)F)CC3)C2)cc1Cl (single isomer, unassigned) [Example 37-1, 2-chloro-N,N-dimethyl-4-((1R,3s)-3-((1-((R or S)-3,3,3-trifluoro-2-hydroxy-2-phenylpropanoyl)piperidin-4-yl)methyl)cyclobutoxy)benzamide] | 10 | 131 | – | – | – | EC50 ([2]; LXR alpha IP): 381 nM; Emax ([2]; read-out: LXR alpha actiivty at max dose): 42%
CC(C)[C@@](O)(C(=O)N1CCC2(CC1)C[C@H]2CCOc1ccc(C(=O)N(C)C)c(Cl)c1)C(F)(F)F (single isomer, unassigned) [Example 12-15, 2-chloro-4-(2-((S or R)-6-((R or S)-2-hydroxy-3-methyl-2-(trifluoromethyl)butanoyl)-6-azaspiro[2.5]octan-1-yl)ethoxy)-N,N-dimethylbenzamide] | 62 | 79 | 2090 | 37 | – | –
4-(2-((1S,2R or 1R, 2S)- 2-(1-((R or S)-2-amino- 3,3,3-trifluoro-2- phenylpropanoyl) piperidin-4- yl)cyclopropyl)ethoxy)-2- chloro-N- methylbenzamide [Example 10-4] | – | – | – | – | 586 | LXR beta actiivty at max dose [1, 8]: 147%; EC50 ([1]; read-out: LXR beta IP): 8 nM; LXR alpha actiivty at max dose [2, 8]: 83%
CN(C)C(=O)c1ccc(OCCC2CC23CCN(C(=O)C2(c4cc(F)ccc4F)CCC2)CC3)cc1Cl (single isomer, unassigned) [Example 12-11, (S or R)-2-chloro-4-(2-(6-(1-(2,5-difluorophenyl)cyclobutanecarbonyl)-6-azaspiro[2.5]octan-1-yl)ethoxy)-N,N-dimethylbenzamide] | 12 | 87 | 447 | 24 | – | –
CC(C)C(O)(C(=O)N1CCC(C2CC2COc2ccc(C(=O)N(C)C)c(Cl)c2)CC1)C(F)(F)F (single isomer, unassigned) [Example 32-1, 2-chloro-4-(((1R,2S or 1S,2R)-2-(1-((S or R)-2-hydroxy-3-methyl-2-(trifluoromethyl)butanoyl)piperidin-4-yl)cyclopropyl)methoxy)-N,N-dimethylbenzamide] | 319 | 82 | – | – | – | LXR alpha actiivty at max dose [2, 8]: 0%; LXR alpha IP [2, 5]: No IP
CN(C)C(=O)c1ccc(OCCC2CC23CCN(S(=O)(=O)C(C)(C)c2ccccc2)CC3)cc1Cl (single isomer, unassigned) [Example 12-18, (S or R)-2-chloro-N,N-dimethyl-4-(2-(6-(2-phenylpropan-2-ylsulfonyl)-6-azaspiro[2.5]octan-1-yl)ethoxy)benzamide] | 80 | 26 | 1180 | 27 | – | –
CN(C)C(=O)c1ccc(OC[C@@H](F)CCC2CCN(C(=O)[C@](O)(c3ccccc3)C(F)(F)F)CC2)cc1Cl (single isomer, unassigned) [Example 20-2, 2-chloro-4-((S or R)-2-fluoro-4-(1-((R or S)-3,3,3-trifluoro-2-hydroxy-2-phenylpropanoyl)piperidin-4-yl)butoxy)-N,N-dimethylbenzamide] | 71 | 73 | – | 25 | 1490 | –
O=C(NCC(F)F)c1ccc(OCCCCC2CCN(C(=O)[C@](O)(c3ccccc3)C(F)(F)F)CC2)cc1Cl (single isomer, unassigned) [Example 8-9, (R or S)-2-chloro-N-(2,2-difluoroethyl)-4-(4-(1-(3,3,3-trifluoro-2-hydroxy-2-phenylpropanoyl)piperidin-4-yl)butoxy) benzamide] | 94 | 82 | 856 | 34 | – | –
